# In PubChem BioAssay (NCI):
#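 A five-concentration, 48-hour dose response in 96-well plates underlies each endpoint, interpolated linearly between surrounding concentrations. The concentration for full growth arrest is given as TGI.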
# Assays:
# Assay in all cases: NCI-60 cell line screen, 48 h
# [1] = system: SK-MEL-2 melanoma
# [2] = system: HT29 colon
# [3] = system: MDA-N
# [4] = system: NCI/ADR-RES ovarian
# [5] = system: CCRF-CEM leukemia
# [6] = system: ACHN renal
# [7] = system: LOX IMVI melanoma
# [8] = system: NCI-H23 lung
# [9] = system: SW-620 colon
# [10] = system: SNB-19 CNS
# [11] = system: SR leukemia
# [12] = system: HCT-15 colon
# [13] = system: NCI-H460 lung
# [14] = system: SF-268 CNS
# [15] = system: OVCAR-4 ovarian
# [16] = system: NCI-H522 lung
# [17] = system: RXF 393 renal
# [18] = system: DU-145 prostate
# [19] = system: UO-31 renal
# [20] = system: SN12C renal
# [21] = system: U251 CNS
# [22] = system: A549 NSCLC
# [23] = system: OVCAR-3 ovarian
# [24] = system: PC-3 prostate
# [25] = system: COLO 205 colon
# [26] = system: EKVX NSCLC
# [27] = system: T-47D breast
# [28] = system: HL-60(TB) leukemia
# [29] = system: UACC-257 melanoma
# [30] = system: A498 renal
# [31] = system: K-562 leukemia
# [32] = system: MOLT-4 leukemia
# [33] = system: SK-MEL-28 melanoma
# [34] = system: 786-0 renal
# [35] = system: HOP-92 NSCLC
# [36] = system: HS 578T breast
# [37] = system: KM12 colon
# [38] = system: HCT-116 colon
# [39] = system: CAKI-1 renal
# [40] = system: TK-10 renal
# [41] = system: MCF7 breast
# [42] = system: HOP-62 NSCLC
# [43] = system: SNB-75 CNS
# [44] = system: OVCAR-5 ovarian
# [45] = system: MALME-3M melanoma
# [46] = system: SK-MEL-5 melanoma
# [47] = system: SF-539 CNS
# [48] = system: MDA-MB-435
# [49] = system: SF-295 CNS
# [50] = system: SK-OV-3 ovarian
# [51] = system: M14 melanoma
# [52] = system: UACC-62 melanoma
# [53] = system: NCI-H226 lung
# [54] = system: RPMI-8226 leukemia
# [55] = system: MDA-MB-231 breast
# [56] = system: HCC-2998 colon
# [57] = system: OVCAR-8 ovarian
# [58] = system: BT-549 breast
# [59] = system: IGROV1 ovarian
smiles,measurement,setting,value
NCCOc1cccc(C2(N3CCCCC3)CCCCC2)c1,TGI,[1],52.2 µM
same,TGI,[2],41.2 µM
same,TGI,[3],33.3 µM
same,TGI,[4],> 100 µM
same,TGI,[5],35.8 µM
same,TGI,[6],> 100 µM
same,TGI,[7],28.9 µM
same,TGI,[8],> 100 µM
same,TGI,[9],> 100 µM
same,TGI,[10],> 100 µM
same,TGI,[11],34.8 µM
same,TGI,[12],> 100 µM
same,TGI,[13],> 100 µM
same,TGI,[14],86.7 µM
same,TGI,[15],> 100 µM
same,TGI,[16],36.1 µM
same,TGI,[17],> 100 µM
same,TGI,[18],> 100 µM
same,TGI,[19],28.2 µM
same,TGI,[20],> 100 µM
same,TGI,[21],35.1 µM
same,TGI,[22],> 100 µM
same,TGI,[23],> 100 µM
same,TGI,[24],> 100 µM
same,TGI,[25],26 µM
same,TGI,[26],62.6 µM
same,TGI,[27],> 100 µM
same,TGI,[28],89.2 µM
same,TGI,[29],34 µM
same,TGI,[30],98.6 µM
same,TGI,[31],35.1 µM
same,TGI,[32],48.7 µM
same,TGI,[33],35.5 µM
same,TGI,[34],26.1 µM
same,TGI,[35],95.2 µM
same,TGI,[36],38.5 µM
same,TGI,[37],> 100 µM
same,TGI,[38],34.4 µM
same,TGI,[39],> 100 µM
same,TGI,[40],> 100 µM
same,TGI,[41],> 100 µM
same,TGI,[42],> 100 µM
same,TGI,[43],> 100 µM
same,TGI,[44],> 100 µM
same,TGI,[45],35.1 µM
same,TGI,[46],30.1 µM
same,TGI,[47],32.3 µM
same,TGI,[48],33.6 µM
same,TGI,[49],77.1 µM
same,TGI,[50],> 100 µM
same,TGI,[51],30.2 µM
same,TGI,[52],44.2 µM
same,TGI,[53],> 100 µM
same,TGI,[54],48.4 µM
same,TGI,[55],46.3 µM
same,TGI,[56],37.5 µM
same,TGI,[57],> 100 µM
same,TGI,[58],40 µM
CCN1CCC(O)(c2ccc([N+](=O)[O-])cc2)C(C(=O)c2ccc([N+](=O)[O-])cc2)C1 (stereo not given),TGI,[1],> 100 µM
same,TGI,[2],> 100 µM
same,TGI,[3],39.1 µM
same,TGI,[59],35.5 µM
same,TGI,[4],> 100 µM
same,TGI,[5],> 100 µM
same,TGI,[6],32 µM
same,TGI,[7],38.6 µM
same,TGI,[8],36.4 µM
same,TGI,[9],> 100 µM
same,TGI,[10],> 100 µM
same,TGI,[11],> 100 µM
same,TGI,[12],52.9 µM
same,TGI,[13],48.7 µM
same,TGI,[14],46 µM
same,TGI,[15],83.9 µM
same,TGI,[16],15.1 µM
same,TGI,[17],30 µM
same,TGI,[18],32.3 µM
same,TGI,[19],36.8 µM
same,TGI,[20],38.8 µM
same,TGI,[21],> 100 µM
same,TGI,[22],> 100 µM
same,TGI,[23],31.5 µM
same,TGI,[24],> 100 µM
same,TGI,[25],28.1 µM
same,TGI,[26],37.6 µM
same,TGI,[27],46.4 µM
same,TGI,[28],> 100 µM
same,TGI,[29],33.7 µM
same,TGI,[30],46.2 µM
same,TGI,[31],> 100 µM
same,TGI,[32],58 µM
same,TGI,[33],33.5 µM
same,TGI,[34],29.9 µM
same,TGI,[36],61.7 µM
same,TGI,[37],32.1 µM
same,TGI,[38],32.6 µM
same,TGI,[39],41.2 µM
same,TGI,[40],32.4 µM
same,TGI,[41],31.4 µM
same,TGI,[42],> 100 µM
same,TGI,[43],> 100 µM
same,TGI,[44],> 100 µM
same,TGI,[45],48.6 µM
same,TGI,[46],35.7 µM
same,TGI,[47],30.7 µM
same,TGI,[48],43.5 µM
same,TGI,[49],> 100 µM
same,TGI,[50],> 100 µM
same,TGI,[51],42.1 µM
same,TGI,[52],33 µM
same,TGI,[53],61.3 µM
same,TGI,[54],17.8 µM
same,TGI,[55],41.9 µM
same,TGI,[56],32.8 µM
same,TGI,[57],81.9 µM
same,TGI,[58],30.8 µM
COc1ccccc1C1c2cc3c(cc2OC2(OC)COC(=O)C12)OCO3 (stereo not given),TGI,[1],55.6 µM
same,TGI,[2],22.9 µM
same,TGI,[3],5.51 µM
same,TGI,[59],> 100 µM
same,TGI,[4],> 100 µM
same,TGI,[5],75.6 µM
same,TGI,[6],> 100 µM
same,TGI,[7],67.1 µM
same,TGI,[8],> 100 µM
same,TGI,[9],> 100 µM
same,TGI,[10],> 77.6 µM
same,TGI,[11],> 28.8 µM
same,TGI,[12],> 100 µM
same,TGI,[13],> 100 µM
same,TGI,[14],83.9 µM
same,TGI,[15],> 95.9 µM
same,TGI,[16],> 27.3 µM
same,TGI,[17],44.2 µM
same,TGI,[18],69.4 µM
same,TGI,[19],65.6 µM
same,TGI,[20],> 100 µM
same,TGI,[21],> 100 µM
same,TGI,[22],> 100 µM
same,TGI,[23],69.3 µM
same,TGI,[24],> 92.7 µM
same,TGI,[25],67.3 µM
same,TGI,[26],> 82.3 µM
same,TGI,[27],> 100 µM
same,TGI,[28],18.5 µM
same,TGI,[29],> 100 µM
same,TGI,[30],54.4 µM
same,TGI,[31],> 45.6 µM
same,TGI,[32],> 46.2 µM
same,TGI,[33],44.2 µM
same,TGI,[34],72.1 µM
same,TGI,[35],> 93.8 µM
same,TGI,[36],34.8 µM
same,TGI,[37],45.5 µM
same,TGI,[38],> 80.9 µM
same,TGI,[39],> 100 µM
same,TGI,[40],> 92.4 µM
same,TGI,[41],> 65.7 µM
same,TGI,[42],> 91.2 µM
same,TGI,[43],43.1 µM
same,TGI,[44],> 100 µM
same,TGI,[45],> 100 µM
same,TGI,[46],59.3 µM
same,TGI,[47],33.4 µM
same,TGI,[48],5.74 µM
same,TGI,[49],63.9 µM
same,TGI,[50],70.1 µM
same,TGI,[51],43.3 µM
same,TGI,[52],60.1 µM
same,TGI,[53],> 87.5 µM
same,TGI,[54],28.3 µM
same,TGI,[55],> 100 µM
same,TGI,[56],> 63.8 µM
same,TGI,[57],> 74.6 µM
same,TGI,[58],> 100 µM
